Like-named read-outs stand apart in the source and are kept apart here.
Key:
[1] = system: ovarian cancer cell lines
Source text: (§1) All compounds submitted for screening were initially tested at a single high dose (10^-5 M) against the fill NCI 60 cell panel. Only compounds which satisfied pre-determined threshold inhibition criteria in a minimum number of cell lines progressed to a second round of testing utilizing a more comprehensive 5-dose inhibition assay. The threshold inhibition criteria for progression to the 5-dose assays were selected to efficiently capture compounds with anti-proliferative activity based on historical DTP screening data.
(§2) Concentrations for G150, IC50, TGI, and LC50 were calculated for all cell lines tested, and heat plots were prepared.

[2] = system: NCI-60 cancer cell lines; test: cells
[3] = system: NCI-60 cancer cell lines; conditions: five-dose
[4] = system: colon cancer cell lines; test: NCI 60 one-dose screen; type: cell-based; conditions: of the 7 colon
[5] = system: CNS cancer cell lines; test: cells; conditions: read-out: Average Concentration (M), LC50, CNS
Source text: as §1, §2

[6] = system: colon cancer cell lines
Source text: as §1, §2

[7] = system: ovarian cancer cell lines; test: NCI 60 one-dose screen; type: cell-based; conditions: of the 7 ovarian
[8] = system: melanoma cell lines; test: NCI 60 one-dose screen; type: cell-based
[9] = system: renal cancer cell lines; test: NCI 60 one-dose screen; type: cell-based; conditions: of the 6 renal
[10] = system: melanoma cell lines
Source text: as §1, §2

[11] = system: non-small cell lung cancer cell lines; test: NCI 60 one-dose screen; type: cell-based; conditions: of the 9 cell lines
[12] = system: CNS cancer cell lines
Source text: as §1, §2

[13] = system: renal cancer cell lines; test: cells; conditions: read-out: Average Concentration (M), LC50, Renal
[14] = system: colon cancer cell lines; test: cells; conditions: read-out: Average Concentration (M), LC50, Colon
Source text: as §1, §2

[15] = system: breast cancer cells lines; test: NCI 60 one-dose screen; type: cell-based; conditions: of the 6 breast
[16] = system: NCI 60 cell panel; type: cell-based; conditions: one-dose
Source text: A) Eight compounds were submitted to the National Cancer Institute (NCI) 60 tumor cell line drug discovery program (DTP) for anticancer screening.
as §1

[17] = system: ovarian cancer cell lines; test: cells; conditions: read-out: Average Concentration (M), LC50, Ovarian
Source text: as §1, §2

[18] = system: renal cancer cell lines
[19] = system: CNS cancer cell lines; test: NCI 60 one-dose screen; type: cell-based; conditions: of the 6 CNS
[20] = system: melanoma cell lines; test: cells; conditions: read-out: Average Concentration (M), LC50, Melanoma
Source text: as §1, §2

CCCCCCCC(=O)SCC/C=C/[C@@H]1CC(=O)NCc2nc(co2)C2=N[C@@](C)(CS2)C(=O)N[C@@H](C(C)C)C(=O)O1 [compound of formula D] was tested. Which “Total Impacted Cell Lines (n), LC50, Ovarian” value [1] did it give?
The value was 1.

And the “Percent of Cell Lines Impacted (%), LC50, Ovarian” value ([1]; five-dose)?
The value was 14%.

And the GI50 ([2]; read-out: Average Concentration (M), GI50)?
Its GI50 is 3.83e-08 M.

And the CC50 ([2]; read-out: Average Concentration (M), LC50)?
Its CC50 is 5.48e-06 M.

And the GI50 ([2]; read-out: GI50 concentrations (M), order of magnitude)?
The GI50 was 1e-08 M.

What about the CC50 ([2]; read-out: LC50 concentrations, order of magnitude) of the same compound?
The CC50 was 1e-06 M.

What about the “Percent of Cell Lines Impacted (%), GI50” value ([3]; 50% Growth Inhibition) of the same compound?
Its value is 100%.

What about the “Percent of Cell Lines Impacted (%), LC50” value ([3]; 50% Lethal Concentration reached) of the same compound?
Its value is 16%.

And the “Percent of Cell Lines Impacted (%), TGI” value ([3]; Total Growth Inhibition)?
The value was 67%.

What about the “Total Impacted Cell Lines (n), TGI” value ([3]; Total Growth Inhibition) of the same compound?
The value was 38.

And the “Average Concentration (M), TGI” value ([3]; average over impacted cell lines)?
Its value is 4.57e-06 M.

And the “cell lines with some level of lethality” value [4]?
Its value is 4.

And the CC50 [5]?
The CC50 was 1.95e-05 M.

And the “Total Impacted Cell Lines (n), LC50, Colon” value [6]?
The value was 2.

And the “Percent of Cell Lines Impacted (%), LC50, Colon” value ([6]; five-dose)?
The value was 29%.

What about the “cell lines with some level of lethality” value [7] of the same compound?
The value was 4.

What about the “lethality in select melanoma cell lines” value ([8]; one-dose studies) of the same compound?
Its value is greater than 90%.

And the “cell lines with some level of lethality” value ([8]; one-dose, of the 9 melanoma)?
The value was 8.

And the “cell lines with some level of lethality” value [9]?
Its value is 4.

What about the “Total Impacted Cell Lines (n), LC50, Melanoma” value [10] of the same compound?
Its value is 3.

And the “Percent of Cell Lines Impacted (%), LC50, Melanoma” value ([10]; five-dose)?
Its value is 38%.

And the “cell lines with some level of lethality” value [11]?
Its value is 7.

What about the “Total Impacted Cell Lines (n), LC50, CNS” value [12] of the same compound?
Its value is 1.

What about the “Percent of Cell Lines Impacted (%), LC50, CNS” value ([12]; five-dose) of the same compound?
The value was 20%.

And the CC50 [13]?
Its CC50 is 1.17e-05 M.

And the CC50 [14]?
Its CC50 is 1.47e-06 M.

And the “cell lines with some level of lethality” value [15]?
The value was 3.

And the “percent of NCI cell lines with some level of lethality” value ([16]; 58 cell lines tested)?
The value was 55%.

What about the “NCI cell lines with some level of lethality” value ([16]; of 58 cell lines tested) of the same compound?
The value was 32.

And the CC50 [17]?
The CC50 was 2.34e-06 M.

What about the “Total Impacted Cell Lines (n), LC50, Renal” value [18] of the same compound?
Its value is 2.

And the “Percent of Cell Lines Impacted (%), LC50, Renal” value ([18]; five-dose)?
Its value is 25%.

And the “cell lines with some level of lethality” value [19]?
Its value is 2.

And the CC50 [20]?
Its CC50 is 3.72e-07 M.

From patent US10676504B2 (Colorado State University Research Foundation, priority 2015, dated 2020)
